Tested on: C. elegans transcriptome
Experiment: Transcriptome profiling (Affymetrix microarrays), differentially expressed genes
Assay type: in vivo, Caenorhabditis elegans
Settings: downregulated genes
How it was run: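 Wild-type young-adult C. elegans (~6,000 per condition, triplicate) were exposed to each drug at 100 µM or to DMSO for 8 h without pathogen. TRIzol/RNeasy RNA was profiled on Affymetrix arrays. Fold changes were normalized to each gene's mean across conditions and clustered by Euclidean distance with average linkage.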

O=c1cc(CNc2ccc(Br)cc2)nc2sccn12 [LK56]
Fold Change (Gene F37C12.7, Affy_ID 174751_at): 0.2156 | Fold Change (Gene R11.4, Affy_ID 177194_at): 0.488 | Fold Change (Gene Y92C3B.2, Affy_ID 175744_s_at): 0.43
